From patent publication US20220372433A1 (priority 2021, published 2022)

Key:
Lactobacillus plantarum = tested on: Lactobacillus plantarum; set-up: unit not given here; conditions: regulatory cut-off for Lactobacillus plantarum; cited from earlier work
[1] = tested on: Lactobacillus plantarum HG-23; assay: Antibiotic sensitivity test (microdilution method, MIC); assay type: cell-based; conditions: cultured for 48 h
Method: The antibiotic resistance of HG-23 was detected by a microdilution method. a series of 2-fold dilutions were performed on antibacterial drugs to be tested (Gentamicin, Kanamycin, Tetracycline, Erythromycin, Clindamycin, Chloramphenicol, Amplicilin, with initial concentrations of 1024 ug/ml, 256 ug/ml, 64 ug/ml, 8 ug/ml, 16 ug/ml, 64 ug/ml, 16 ug/ml) for 12 times, then added into corresponding wells of 96-well plates, and then […] diluted test bacterial solutions were added into the corresponding wells. After being cultured for 48 h, the minimum inhibitory concentration (MIC) well of the antibacterial drug, namely the sensitivity of the test strain, was observed.

In the case of Gentamicin, the “EFSA specified safety value (Lactobacillus plantarum)” value (Lactobacillus plantarum) is listed as 16 and the “minimum inhibitory concentration (MIC) of antibiotic against HG-23” value [1] is listed as 8 mg/L.
